Literature values, collected in patent US12060328B2, “Co-crystals or salts of psilocybin and methods of treatment therewith” (RESET PHARMACEUTICALS, INC., priority 2022, dated 2024).

Details: cited from earlier work; for pKa (acidic) / pKa (basic): co-former property, Table 1

Compound: NC(CS)C(=O)O (racemic) [DL-cysteine]
- pKa (acidic): 1.71
- pKa (basic): 8.33

Compound: OC[C@@H](O)[C@@H](O)[C@H](O)[C@H](O)CO [D-mannitol]
- pKa (acidic): 13.50

Compound: O=C1CC[C@@H](C(=O)O)N1 [L-pyroglutamic acid]
- pKa (acidic): 3.48

Compound: O=C(O)[C@H](O)[C@@H](O)[C@H](O)[C@H](O)CO [gluconic acid]
- pKa (acidic): 3.6

Compound: NC(=O)c1ccncc1 [isonicotinamide]
- pKa (basic): 3.61

Compound: OC[C@@H](O)[C@@H](O)CO [meso-erythritol]
- pKa (acidic): 13.90

Compound: CCCOC(=O)c1cc(O)c(O)c(O)c1 [propyl 3,4,5-trihydroxybenzoate]
- pKa (acidic): 7.94

Compound: CN(C)CCc1c[nH]c2cccc(OP(=O)(O)O)c12 [psilocybin, [3-(2-dimethylaminoethyl)-1H-indol-4-yl]dihydrogen phosphate]
- pKa3 (tertiary amine) (estimated) (reported value, estimated): 10.4
- pKa1 (1st phosphate oxygen) (reported value): 1.3
- pKa2 (2nd phosphate oxygen) (reported value): 6.5

Compound: Cn1c(=O)c2[nH]cnc2n(C)c1=O [theophylline]
- pKa (acidic): 8.81

Compound: NC(CO)(CO)CO [tromethamine]
- pKa (basic): 8.95

Compound: NC(N)=O [urea]
- pKa (basic): 0.10
